Measured values reported in US11795171B2, “Pyrrolotriazinones and imidazotriazinones as ubiquitin-specific protease 7 inhibitors” (Valo Health, Inc., priority 2014, dated 2023).

target: USP7 (Homo sapiens (Human), UniProt Q93009); test: USP7 Assay B (Ubitquin-Rhodamine110 Assay); format: biochemical; details: Ub-Rh110 substrate 25 nM
Description: Stock compound solutions were stored at −20° C. as 10 mM in DMSO. […] Prestamped assay plates were allowed to come to room temperature on the day of the assay. For the screen, 100 nL of 2 mM was pre-dispensed for a final screening concentration of 10 μM (DMSO(fc)=0.5%). […] Unless otherwise indicated, all follow-up assays were run on triplecate plates. […] Pre-stamped with compounds were either not preincubated or preincubated with USP7 between 30 to 120 minutes prior to the addition of 10 μL of 2×Ub-Rh110 to compound plates. Plates were incubated stacked for either 23 or 45 minutes at room temperature before fluorescence was read on the Envision (Excitation at 485 nm and Emission at 535 nm; Perkin Elmer) or on the PheraSTAR (Excitation at 485 nm and Emission at 535 nm; BMG Labtech).
Data from USP7 Assays A and B were reported as percent inhibition (inh) compared with control wells based on the following equation: % inh=1−((FLU−AveLow)/(AveHigh−AveLow)) where FLU=measured Fluorescence (See Tables 2 and 3). AveLow=average Fluorescence of no enzyme control (n=16). AveHigh=average Fluorescence of DMSO control (n=16). IC50 values were determined by curve fitting of the standard 4 parameter logistic fitting algorithm included in the Activity Base software package: IDBS XE Designer Model205. Data is fitted using the Levenburg Marquardt algorithm.

Sequence of USP7 (Q93009 208-1102): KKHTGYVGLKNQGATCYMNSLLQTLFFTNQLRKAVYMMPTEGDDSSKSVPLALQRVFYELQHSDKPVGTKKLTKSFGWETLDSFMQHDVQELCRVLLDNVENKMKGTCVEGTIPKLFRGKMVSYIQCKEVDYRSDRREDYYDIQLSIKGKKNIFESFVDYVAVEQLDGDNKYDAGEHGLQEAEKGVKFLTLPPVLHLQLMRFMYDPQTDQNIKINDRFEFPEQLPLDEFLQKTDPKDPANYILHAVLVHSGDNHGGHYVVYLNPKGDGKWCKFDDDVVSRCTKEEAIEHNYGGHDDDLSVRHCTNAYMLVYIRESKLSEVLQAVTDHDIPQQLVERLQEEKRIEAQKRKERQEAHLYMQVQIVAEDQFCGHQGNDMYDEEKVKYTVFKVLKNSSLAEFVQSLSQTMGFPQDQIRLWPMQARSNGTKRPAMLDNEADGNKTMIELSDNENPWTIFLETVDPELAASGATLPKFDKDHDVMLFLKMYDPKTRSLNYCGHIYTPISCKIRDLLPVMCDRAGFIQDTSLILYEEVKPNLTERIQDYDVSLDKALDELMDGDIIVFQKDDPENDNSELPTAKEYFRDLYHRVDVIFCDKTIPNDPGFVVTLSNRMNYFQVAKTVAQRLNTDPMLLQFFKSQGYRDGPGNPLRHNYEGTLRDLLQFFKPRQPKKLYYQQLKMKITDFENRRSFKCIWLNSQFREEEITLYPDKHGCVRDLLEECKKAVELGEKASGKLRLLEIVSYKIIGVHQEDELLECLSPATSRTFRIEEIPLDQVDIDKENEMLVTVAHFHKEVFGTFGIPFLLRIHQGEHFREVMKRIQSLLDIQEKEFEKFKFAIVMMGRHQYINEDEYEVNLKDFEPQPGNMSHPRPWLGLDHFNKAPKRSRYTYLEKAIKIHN

| SMILES | IC50 |
| --- | --- |
| O=C(c1cccc(-c2ccc3scnc3c2)c1)N1CCC(O)(Cn2cnn3cccc3c2=O)CC1 [Compound I-23, 3-((1-(3-(benzo[d]thiazol-5-yl)benzoyl)-4-hydroxypiperidin-4-yl)methyl)pyrrolo[2,1-f][1,2,4]triazin-4(3H)-one] | 1 to 10 µM |
| Cc1ccc2[nH]ncc2c1-c1cccc(C(=O)N2CCC(O)(Cn3cnn4cccc4c3=O)CC2)c1 [Compound I-24, 3-((4-hydroxy-1-(3-(5-methyl-1H-indazol-4-yl)benzoyl)piperidin-4-yl)methyl)pyrrolo[2,1-f][1,2,4]triazin-4(3H)-one] | 1 to 10 µM |
| Cn1c(-c2cccc(C(=O)N3CCC(O)(Cn4cnn5cccc5c4=O)CC3)c2)cc2ccccc21 [Compound I-25, 3-((4-hydroxy-1-(3-(1-methyl-1H-indol-2-yl)benzoyl)piperidin-4-yl)methyl)pyrrolo[2,1-f][1,2,4]triazin-4(3H)-one] | 0.2 to 1 µM |
| O=C(NC1CCCC1)c1cccc(-c2cccc(C(=O)N3CCC(O)(Cn4cnn5cccc5c4=O)CC3)c2)c1 [Compound I-26, N-cyclopentyl-3′-(4-hydroxy-4-((4-oxopyrrolo[2,1-f][1,2,4]triazin-3(4H)-yl)methyl)piperidine-1-carbonyl)-[1,1′-biphenyl]-3-carboxamide] | > 10 µM |
| O=C(c1cccc(-c2cccs2)c1)N1CCC(O)(Cn2cnn3cccc3c2=O)CC1 [Compound I-27, 3-((4-hydroxy-1-(3-(thiophen-2-yl)benzoyl)piperidin-4-yl)methyl)pyrrolo[2,1-f][1,2,4]triazin-4(3H)-one] | > 10 µM |
| O=C(c1cccc(-c2ccsc2)c1)N1CCC(O)(Cn2cnn3cccc3c2=O)CC1 [Compound I-28, 3-((4-hydroxy-1-(3-(thiophen-3-yl)benzoyl)piperidin-4-yl)methyl)pyrrolo[2,1-f][1,2,4]triazin-4(3H)-one] | > 10 µM |
| O=C(c1cccc(-c2ccccc2F)c1)N1CCC(O)(Cn2cnn3cccc3c2=O)CC1 [Compound I-29, 3-((1-(2′-fluoro-[1,1′-biphenyl]-3-carbonyl)-4-hydroxypiperidin-4-yl)methyl)pyrrolo[2,1-f][1,2,4]triazin-4(3H)-one] | 1 to 10 µM |
| O=C(c1cccc(-c2cccc(F)c2)c1)N1CCC(O)(Cn2cnn3cccc3c2=O)CC1 [Compound I-30, 3-((1-(3′-fluoro-[1,1′-biphenyl]-3-carbonyl)-4-hydroxypiperidin-4-yl)methyl)pyrrolo[2,1-f][1,2,4]triazin-4(3H)-one] | 1 to 10 µM |
| CC(C)(C#N)c1ccc(C(=O)N2CCC(O)(Cn3cnn4cccc4c3=O)CC2)cc1 [Compound I-31, 2-(4-(4-hydroxy-4-((4-oxopyrrolo[2,1-f][1,2,4]triazin-3(4H)-yl)methyl)piperidine-1-carbonyl)phenyl)-2-methylpropanenitrile] | > 10 µM |
| O=C(c1cnc(-c2ccccc2)o1)N1CCC(O)(Cn2cnn3cccc3c2=O)CC1 [Compound I-32, 3-((4-hydroxy-1-(2-phenyloxazole-5-carbonyl)piperidin-4-yl)methyl)pyrrolo[2,1-f][1,2,4]triazin-4(3H)-one] | > 10 µM |
| O=C(C1CCN(c2nc3ccccc3o2)CC1)N1CCC(O)(Cn2cnn3cccc3c2=O)CC1 [Compound I-33, 3-((1-(1-(benzo[d]oxazol-2-yl)piperidine-4-carbonyl)-4-hydroxypiperidin-4-yl)methyl)pyrrolo[2,1-f][1,2,4]triazin-4(3H)-one] | > 10 µM |
| COc1cccc(-c2ccc(C(=O)N3CCC(O)(Cn4cnn5cccc5c4=O)CC3)cc2)c1 [Compound I-35, 3-((4-hydroxy-1-(3′-methoxy-[1,1′-biphenyl]-4-carbonyl)piperidin-4-yl)methyl)pyrrolo[2,1-f][1,2,4]triazin-4(3H)-one] | > 10 µM |
| O=C(c1ccc(-c2ccccc2)cc1)N1CCC(O)(Cn2cnn3cccc3c2=O)CC1 [Compound I-36, 3-((1-([1,1′-biphenyl]-4-carbonyl)-4-hydroxypiperidin-4-yl)methyl)pyrrolo[2,1-f][1,2,4]triazin-4(3H)-one] | > 10 µM |
